Circulating plasma concentration data for one compound are collected here from patent US20050020993A1, “Administration of therapeutic or diagnostic agents using interlabial pad” (priority 2001, published 2005).

The series can be described thus: circulating plasma concentration of estradiol from an ILP system in HRT. Format: in vivo. As to conditions: ILP (interlabial pad) system releasing 100 mg/day of estradiol as its 3-acetate ester; hormone replacement therapy. The text has this: In one embodiment, a kit is provided for administering the medication from the drug delivery device. The kit includes an interlabial pad, and a package such as a plastic vial or a plastic or foil container, for packaging the interlabial pad. The kit can also include directions for the use of the pad. The pad can contain a unit dose of the medication, for example an anti-infective, such as gynelotrimin. Another example is the delivery of estradiol to treat vaginal atrophy or for hormone replacement therapy (HRT). In HRT, and ILP system releasing […] of estradiol as its 3-acetate ester maintains a circulating plasma concentration of 300 pmol/L of the drug, which is within the clinically desirable range for HRT.

Structures are written as SMILES.

In the case of `C[C@]12CC[C@@H]3c4ccc(O)cc4CC[C@H]3[C@@H]1CC[C@@H]2O` [estradiol], the circulating plasma concentration is on record as 300 pmol/L.
